Laboratory results: patent US11814367B2, “Inhibitors of glycogen synthase 1 (GYS1) and methods of use thereof” (Maze Therapeutics, Inc., priority 2021, dated 2023)
pIC50: −log10 of the molar value.

How the values were obtained:
[1] = molecular target: hGYS1 enzyme (recombinant hGYS1/GN1 protein) (Homo sapiens (Human), UniProt P13807); assay: GYS1 coupled enzyme assay (PK/LDH); format: biochemical; conditions: hGYS1/GN1 50 nM, UDP-Glucose 0.8 mM, G6P 1 mM; geometric mean of at least 2 runs
[2] = molecular target: hGYS2 enzyme (recombinant hGYS2/GN1 protein) (Homo sapiens (Human), UniProt P54840); assay: GYS2 coupled enzyme assay (PK/LDH); format: biochemical; conditions: geometric mean of at least 2 assay runs on separate days, read-out: Avg_IC50
Excerpt: The GYS2 coupled enzyme assay is a kinetic biochemical assay that indirectly quantifies the rate of glycogen synthesis by coupling the conversion of GYS2 substrate UDP-glucose into UDP with downstream enzymatic reactions. UDP is released from UDP-glucose as glucose monomers are linked into the growing glycogen strand by GYS2. The coupled assay then proceeds with pyruvate kinase utilizing UDP and phospho(enol)pyruvate (PEP) to form pyruvate. Lactate dehydrogenase then converts pyruvate and NADH into lactate and NAD+. Oxidation of NADH to NAD+ can be measured continuously with a plate reader by quantifying the decrease in NADH absorbance at 340 nm over time.
Compounds that inhibit the hGYS2 enzyme and, subsequently, the downstream conversion of NADH to NAD+, were tested using assay ready plates (black, clear bottom 384 well plates) in a final DMSO reaction volume of 2.5% DMSO. The Assay Buffer contained 50 mM Tris pH 7.5, 2 mM MgCl2, and 100 mM KCl. Fresh stocks of BSA at a final concentration of 0.02% and TCEP 1 mM were added before splitting buffer into hGYS2 buffer and substrate buffer. To the hGYS2 buffer, rabbit liver glycogen was added at a final concentration of 0.2% glycogen. Glucose-6-Phosphate was added at 2 mM, recombinant hGYS2/GN1 protein was added at 200 nM to the substrate buffer, phosphoenolpyruvate (PEP) was added at 2 mM, UDP-Glucose was added at 2 mM, NADH was added at 0.6 mM, and Pyruvate Kinase/Lactate Dehydrogenase was added at 20 units/mL. The reaction was initiated by mixing hGYS2 buffer and substrate buffer at a 1:1 ratio. Both buffers were plated using a liquid dispensing device with hGYS2 buffer plated first followed by the substrate buffer. Plates were spun briefly to eliminate air bubbles and are immediately read in continuous mode at an absorbance of 340 nm, for 10 time points in one-minute increments, for a total of 10 minutes. The slope from these 10 time points was normalized to the positive and negative control wells. The duplicate % inhibition values are then averaged and fit to a Hill equation for dose response according to the Levenberg-Marquardt algorithm with the Hill equation maximum set to 100 and the minimum set to 0.
The results are shown in Table 4 below, which reports the IC50 of each compound. Unless otherwise specified, IC50 values are reported as the geometric mean of at least 2 assay runs on separate days. As shown in the table below, the compounds of the present invention are not potent inhibitors of human GYS2. Unless otherwise specified, IC50 values are reported as the geometric mean of at least two assay runs on separate days. Each run represents the average of a technical replicate, where each compound was assayed twice in the same plate. A superscript “#” symbol in Table 4 indicates results from a single assay run.

Sequence of hGYS2 enzyme (recombinant hGYS2/GN1 protein) (P54840 whole entry): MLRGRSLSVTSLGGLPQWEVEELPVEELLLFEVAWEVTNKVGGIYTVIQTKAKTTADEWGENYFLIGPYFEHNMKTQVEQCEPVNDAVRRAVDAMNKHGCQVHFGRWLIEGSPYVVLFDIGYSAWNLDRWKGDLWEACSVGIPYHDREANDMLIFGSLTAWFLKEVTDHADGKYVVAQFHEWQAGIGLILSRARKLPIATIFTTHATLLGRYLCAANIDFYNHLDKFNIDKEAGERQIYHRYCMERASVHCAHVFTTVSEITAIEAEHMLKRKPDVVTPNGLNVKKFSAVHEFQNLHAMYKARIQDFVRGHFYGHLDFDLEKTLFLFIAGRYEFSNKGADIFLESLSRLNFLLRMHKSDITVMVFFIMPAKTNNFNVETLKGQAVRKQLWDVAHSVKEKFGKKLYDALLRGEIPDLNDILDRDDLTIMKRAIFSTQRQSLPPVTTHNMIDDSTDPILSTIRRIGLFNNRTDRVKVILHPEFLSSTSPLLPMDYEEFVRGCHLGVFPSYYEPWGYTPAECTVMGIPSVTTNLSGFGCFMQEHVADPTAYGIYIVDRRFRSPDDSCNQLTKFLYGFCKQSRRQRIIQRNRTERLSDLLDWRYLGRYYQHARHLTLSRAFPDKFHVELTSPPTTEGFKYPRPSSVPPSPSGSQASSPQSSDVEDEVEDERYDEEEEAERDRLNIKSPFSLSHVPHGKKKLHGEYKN
Sequence of hGYS2 enzyme (recombinant hGYS2/GN1 protein) (P46976 whole entry partner): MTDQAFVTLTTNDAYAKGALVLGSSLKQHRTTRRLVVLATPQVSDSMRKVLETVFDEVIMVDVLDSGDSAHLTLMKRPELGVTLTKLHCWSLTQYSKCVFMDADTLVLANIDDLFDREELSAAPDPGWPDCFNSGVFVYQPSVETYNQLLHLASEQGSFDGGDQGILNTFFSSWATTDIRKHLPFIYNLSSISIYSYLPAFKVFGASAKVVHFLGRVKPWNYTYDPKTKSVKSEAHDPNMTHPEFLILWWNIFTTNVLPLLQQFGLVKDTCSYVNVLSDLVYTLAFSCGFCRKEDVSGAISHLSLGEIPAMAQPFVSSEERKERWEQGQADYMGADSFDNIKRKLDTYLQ
Sequence of hGYS1 enzyme (recombinant hGYS1/GN1 protein) (P13807 whole entry): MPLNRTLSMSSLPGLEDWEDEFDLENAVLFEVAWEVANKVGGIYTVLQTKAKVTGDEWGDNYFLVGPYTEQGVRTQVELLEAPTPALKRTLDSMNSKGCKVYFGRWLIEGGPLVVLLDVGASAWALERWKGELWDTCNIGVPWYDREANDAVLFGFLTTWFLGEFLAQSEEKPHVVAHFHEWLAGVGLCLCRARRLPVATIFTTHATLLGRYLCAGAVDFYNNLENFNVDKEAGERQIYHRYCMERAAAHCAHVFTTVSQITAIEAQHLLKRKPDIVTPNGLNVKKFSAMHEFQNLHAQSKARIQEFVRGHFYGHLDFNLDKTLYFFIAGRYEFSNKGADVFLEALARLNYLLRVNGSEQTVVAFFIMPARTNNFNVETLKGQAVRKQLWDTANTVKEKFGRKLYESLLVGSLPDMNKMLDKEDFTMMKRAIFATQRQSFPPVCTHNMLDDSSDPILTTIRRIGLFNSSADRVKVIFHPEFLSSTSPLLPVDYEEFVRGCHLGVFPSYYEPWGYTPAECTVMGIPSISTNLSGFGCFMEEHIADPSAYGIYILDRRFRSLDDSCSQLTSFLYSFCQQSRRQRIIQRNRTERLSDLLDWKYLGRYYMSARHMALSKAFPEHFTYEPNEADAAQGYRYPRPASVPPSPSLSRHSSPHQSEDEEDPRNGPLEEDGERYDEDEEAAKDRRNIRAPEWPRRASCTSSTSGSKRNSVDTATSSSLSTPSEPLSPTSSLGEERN
Sequence of hGYS1 enzyme (recombinant hGYS1/GN1 protein) (P46976 whole entry partner): as the sequence (P46976 whole entry partner) above

pIC50 [1] | pIC50 [2] | SMILES
7.14 | < 4.00 | CC(C)c1ccc([C@@H](NC(=O)[C@@H]2C[C@@H](F)CN2C(=O)CNC(=O)C(F)(F)F)c2ccccc2)cc1 [Compound 187, (2S,4R)-4-fluoro-N-[(S)-phenyl[4-(propan-2-yl)phenyl]methyl]-1-[2-(2,2,2-trifluoroacetamido)acetyl] pyrrolidine-2-carboxamide]
6.69 | < 4.00 | CC(=O)N1CCC[C@@H]1CC(=O)N1C[C@H](F)C[C@H]1C(=O)N[C@@H](c1ccccc1)c1ccc(C(C)C)cc1 [Compound 155, (2S,4R)-1-{2-[(2R)-1-acetylpyrrolidin-2-yl]acetyl}-4-fluoro-N-[(S)-phenyl[4-(propan-2-yl)phenyl]methyl]pyrrolidine-2-carboxamide]
7.82 | < 4.00 | CC(C)c1ccc([C@@H](NC(=O)[C@@H]2C[C@@H](F)CN2C(=O)Cc2cnc3ccccn23)c2ccccc2)cc1 [Compound 121]
6.96 | < 4.00 | CC(C)c1ccc([C@@H](NC(=O)[C@@H]2C[C@@H](F)CN2C(=O)Cn2cccn2)c2ccccc2)nc1 [Compound 292, (2S,4R)-4-fluoro-N-[(S)-phenyl[5-(propan-2-yl)pyridin-2-yl]methyl]-1-[2-(1H-pyrazol-1-yl)acetyl]pyrrolidine-2-carboxamide]
7.70 | < 4.00 | CC(C)c1ccc([C@@H](NC(=O)[C@@H]2C[C@@H](F)CN2C(=O)Cc2ccn(C)n2)c2ccccc2)cc1F [Compound 350, (2S,4R)-4-fluoro-N-[(S)-[3-fluoro-4-(propan-2-yl)phenyl](phenyl)methyl]-[2-(1-methyl-1H-pyrazol-3-yl)acetyl]pyrrolidine-2-carboxamide]
7.15 | < 4.00 | CC(C)c1ccc([C@@H](NC(=O)[C@@H]2C[C@@H](F)CN2C(=O)Cn2ccnc2)c2ccccc2)cc1 [Compound 23, (2S,4R)-4-fluoro-1-[2-(1H-imidazol-1-yl)acetyl]-N-[(S)-phenyl[4-(propan-2-yl)phenyl]methyl]pyrrolidine-2-carboxamide]
7.37 | < 4.00 | CC(C)c1c(F)cc(C(NC(=O)[C@@H]2C[C@@H](F)CN2C(=O)Cc2ncco2)c2ccccc2)cc1F (single isomer, unassigned) [Compound 661, (2S,4R)-N-[(S) or (R)-[3,5-difluoro-4-(propan-2-yl)phenyl](phenyl)methyl]-4-fluoro-1-[2-(1,3-oxazol-2-yl)acetyl]pyrrolidine-2-carboxamide]
7.55 | < 4.00 | CC(C)c1ccc([C@@H](NC(=O)[C@@H]2C[C@@H](F)CN2C(=O)Cc2noc(C(C)C)n2)c2ccccc2)cc1 [Compound 87, (2S,4R)-4-fluoro-N-[(S)-phenyl[4-(propan-2-yl)phenyl]methyl]-1-{2-[5-(propan-2-yl)-1,2,4-oxadiazol-3-yl]acetyl}pyrrolidine-2-carboxamide]
7.42 | < 4.00 | CC(C)c1ccc([C@@H](NC(=O)[C@@H]2C[C@@H](F)CN2C(=O)Cc2ccnn2C)c2ccccc2)cc1 (stereo in doubt) [Compound 220, (2S,4RS)-4-fluoro-1-[2-(1-methyl-1H-pyrazol-5-yl)acetyl]-N-[(S)-phenyl[4-(propan-2-yl)phenyl]methyl]pyrrolidine-2-carboxamide]
7.77 | < 4.00 | CC(C)c1ccc([C@@H](NC(=O)[C@@H]2C[C@@H](F)CN2C(=O)Cc2cc3ccccc3n2C)c2ccccc2)cc1 [Compound 137, (2S,4R)-4-fluoro-1-[2-(1-methyl-1H-indol-2-yl)acetyl]-N-[(S)-phenyl[4-(propan-2-yl)phenyl]methyl]pyrrolidine-2-carboxamide]
6.78 | < 4.00 | CC(C)c1ccc([C@@H](NC(=O)[C@@H]2C[C@@H](F)CN2C(=O)C2(c3nnco3)CC2)c2ccccc2)cc1F [Compound 333, (2S,4R)-4-fluoro-N-[(S)-[3-fluoro-4-(propan-2-yl)phenyl](phenyl)methyl]-1-[1-(1,3,4-oxadiazol-2-yl)cyclopropanecarbonyl] pyrrolidine-2-carboxamide]
7.00 | < 4.00 | Cc1cc([C@@H](NC(=O)[C@@H]2C[C@@H](F)CN2C(=O)Cc2cnn[nH]2)c2ccccc2)ccc1C1CC1 [Compound 665, (2S,4R)-N-[(S)-(4-cyclopropyl-3-methylphenyl) (phenyl)methyl]-4-fluoro-1-[2-(1H-1,2,3-triazol-5-yl)acetyl]pyrrolidine-2-carboxamide]
6.73 | < 4.00 | Cc1nnnn1CC(=O)N1C[C@H](F)C[C@H]1C(=O)N[C@@H](c1ccccc1)c1ccc(C2CC2)c(F)c1 [Compound 432, (2S,4R)-N-[(S)-(4-cyclopropyl-3-fluorophenyl)(phenyl)methyl]-4-fluoro-1-[2-(5-methyl-1H-1,2,3,4-tetrazol-1-yl)acetyl]pyrrolidine-2-carboxamide]
7.49 | < 4.00 | CC(C)c1ccc([C@@H](NC(=O)[C@@H]2C[C@@H](F)CN2C(=O)Cc2cncnc2)c2ccccc2)cc1F [Compound 345, (2S,4R)-4-fluoro-N-[(S)-[3-fluoro-4-(propan-2-yl)phenyl](phenyl)methyl]-1-[2-(pyrimidin-5-yl)acetyl]pyrrolidine-2-carboxamide]
7.25 | < 4.00 | CC(C)c1ccc([C@@H](NC(=O)[C@@H]2C[C@@H](F)CN2C(=O)CCn2nc3ccccn3c2=O)c2ccccc2)nc1 [Compound 289, (2S,4R)-4-fluoro-1-(3-{3-oxo-2H,3H-[1,2,4]triazolo[4,3-a]pyridin-2-yl}propanoyl)-N-[(S)-phenyl[5-(propan-2-yl)pyridin-2-yl]methyl]pyrrolidine-2-carboxamide]
7.64 | < 4.00 | Cc1cc(C)n(CC(=O)N2C[C@H](F)C[C@H]2C(=O)N[C@@H](c2ccccc2)c2ccc(C(C)C)cc2)n1 [Compound 125, (2S,4R)-1-[2-(3,5-dimethyl-1H-pyrazol-1-yl)acetyl]-4-fluoro-N-[(S)-phenyl[4-(propan-2-yl)phenyl]methyl]pyrrolidine-2-carboxamide]
6.89 | < 4.00 | CC(C)c1ccc([C@@H](NC(=O)[C@@H]2C[C@@H](F)CN2C(=O)Cc2cnn[nH]2)c2cccnc2N)cc1F [Compound 613, (2S,4R)-1-(2-(1H-1,2,3-triazol-5-yl)acetyl)-N—((R)-(2-aminopyridin-3-yl)(3-fluoro-4-isopropylphenyl)methyl)-4-fluoropyrrolidine-2-carboxamide]
7.14 | < 4.00 | Cc1ccc(CCC(=O)N2C[C@H](F)C[C@H]2C(=O)N[C@@H](c2ccccc2)c2ccc(C(C)C)cc2)cn1 [Compound 100, (2S,4R)-4-fluoro-1-[3-(6-methylpyridin-3-yl)propanoyl]-N-[(S)-phenyl[4-(propan-2-yl)phenyl]methyl]pyrrolidine-2-carboxamide]
6.81 | < 4.00 | CC(C)c1ccc([C@@H](NC(=O)[C@@H]2C[C@@H](F)CN2C(=O)CN2CCCCC2=O)c2ccccc2)cc1 [Compound 85, (2S,4R)-4-fluoro-1-[2-(2-oxopiperidin-1-yl)acetyl]-N-[(S)-phenyl[4-(propan-2-yl)phenyl]methyl]pyrrolidine-2-carboxamide]
